Laboratory results: PubChem BioAssay (NCI)
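Where inhibition never reached the appropriate level, the endpoint shown equals the highest concentration tested. Otherwise, values were interpolated linearly from a five-concentration, 48-hour dose response in 96-well plates. Definition used: TGI = concentration required for complete inhibition of growth.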

Tests used:
Test in all cases: growth of human tumour cells (NCI), 48 h
[1] = test system: OVCAR-4 ovarian
[2] = test system: SF-295 CNS
[3] = test system: K-562 leukemia
[4] = test system: OVCAR-3 ovarian
[5] = test system: UO-31 renal
[6] = test system: T-47D breast
[7] = test system: MALME-3M melanoma
[8] = test system: NCI-H23 lung
[9] = test system: A498 renal
[10] = test system: BT-549 breast
[11] = test system: HS 578T breast
[12] = test system: EKVX NSCLC
[13] = test system: ACHN renal
[14] = test system: DU-145 prostate
[15] = test system: HL-60(TB) leukemia
[16] = test system: A549 NSCLC
[17] = test system: SK-OV-3 ovarian
[18] = test system: SW-620 colon

Compound | TGI [1] [µM] | TGI [2] [µM] | TGI [3] [µM] | TGI [4] [µM] | TGI [5] [µM] | TGI [6] [µM] | TGI [7] [µM] | TGI [8] [µM] | TGI [9] [µM] | TGI [10] [µM] | TGI [11] [µM] | TGI [12] [µM] | TGI [13] [µM] | TGI [14] [µM] | TGI [15] [µM] | TGI [16] [µM] | TGI [17] [µM] | TGI [18] [µM]
CCCCn1c(N)c(-c2nc3ccccc3o2)sc1=S | 19.9 | 28.9 | > 100 | 33.9 | 39 | 47.9 | 40.2 | 37.6 | 98.8 | 75.2 | 77.6 | 81.8 | 23.3 | 35.9 | > 100 | 29.8 | 40.8 | 
Cn1c(=O)c2c(nc3n2CC(=O)N3CCCCl)n(C)c1=O | > 100 | > 100 | > 100 | > 100 | > 100 | > 100 |  | > 100 | > 100 | > 100 | > 100 | > 100 | > 100 | > 100 | > 100 | > 100 | > 100 | > 100
CO/C(=N\N=C\c1ccc(OC)c(OC)c1)c1ccncc1 | > 10 |  | > 10 |  | > 10 | > 10 | > 10 | > 10 | > 10 | > 10 | > 10 | > 10 |  | > 10 | > 10 | > 10 | > 10 | > 10
Cn1c(=O)c2[nH]c(CCNC(=O)c3ccccc3)nc2n(C)c1=O | > 100 | > 100 | > 100 | > 100 | > 100 | > 100 | > 100 | > 100 | > 100 | > 100 | > 100 | > 100 | > 100 | > 100 |  | > 100 |  | > 100
Cc1cc(C)c(-n2[nH]c(=O)n(C)c2=O)c(C)c1 | > 100 |  | > 100 | > 100 | > 100 | > 100 | > 100 | > 100 | > 100 | > 100 | > 100 | > 100 |  | > 100 | > 100 | > 100 | > 100 | > 100
C/C(=N\Nc1ccc([N+](=O)[O-])cc1[N+](=O)[O-])c1sc(-n2nc(-c3ccccc3)cc2-c2ccccc2)nc1C | > 100 | > 100 |  | > 100 | > 100 | > 100 | > 100 | > 100 | 92.3 | > 100 | > 100 | > 100 | > 100 | > 100 | 44.5 |  | > 100 | > 100
CC1(/C=C/CCSc2ccccc2)CC(=O)C2CC1C2(C)C (centres undefined) | > 100 | > 100 | > 100 | > 91.3 | 43.5 | > 100 | > 69.7 | > 100 | > 88.3 | 42.1 | > 100 | > 100 | 77.8 | > 100 |  | > 100 | > 100 | > 100
